Consider seven molecules from ChEMBL document CHEMBL6109085, “Furazanopyrazine-based novel promising anticancer agents interfering with the eicosanoid biosynthesis pathways by dual mPGES-1 and sEH inhibition” (Eur J Med Chem, 2025).

Data set [1] in a line: Microsomal stability in human liver microsomes assessed as half-life preincubated for 5 mins followed by NADPH and UDP-GlcUA addition and measured after 30 to 120 mins by UHPLC analysis. The following applies: time 35-125 min. It is filed as ADME, Microsome.
Data set [2] is described as follows: Microsomal stability in human liver microsomes assessed as intrinsic clearance preincubated for 5 mins followed by NADPH and UDP-GlcUA addition and measured after 30 to 120 mins by UHPLC analysis. It is filed as ADME, Microsome. The following applies: time 35-125 min, read-out: CLH. A general note: Liver microsomes are vesicles of endoplasmic reticulum, rich in cytochrome P450 enzymes.

Data set [3] deals with T1, Bifunctional epoxide hydrolase 2 (Homo sapiens) (UniProt P34913).
T1 sequence (whole entry): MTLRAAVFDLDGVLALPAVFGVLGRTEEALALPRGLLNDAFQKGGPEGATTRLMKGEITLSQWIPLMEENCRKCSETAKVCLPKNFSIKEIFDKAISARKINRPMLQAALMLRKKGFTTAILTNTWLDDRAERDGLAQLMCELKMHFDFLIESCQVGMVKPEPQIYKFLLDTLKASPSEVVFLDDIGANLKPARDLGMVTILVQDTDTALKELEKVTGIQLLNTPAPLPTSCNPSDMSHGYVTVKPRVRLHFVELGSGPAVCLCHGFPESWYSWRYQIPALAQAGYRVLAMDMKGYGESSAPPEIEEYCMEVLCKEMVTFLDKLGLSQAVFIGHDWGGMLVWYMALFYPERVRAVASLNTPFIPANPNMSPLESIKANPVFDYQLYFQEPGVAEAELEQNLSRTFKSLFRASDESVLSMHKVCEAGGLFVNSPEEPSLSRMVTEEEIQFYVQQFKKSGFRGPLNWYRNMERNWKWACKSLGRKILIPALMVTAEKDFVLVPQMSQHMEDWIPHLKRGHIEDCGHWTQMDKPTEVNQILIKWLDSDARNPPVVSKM
Description: Inhibition of recombinant human sEH extracted from baculovirus infected Sf9 cells using PHOME as substrate at 10 uM preincubated for 15 mins followed by PHOME substrate addition and measured after 60 mins by fluorescence based analysis relative to control. To be noted: time 75.0 min.

Data set [4] deals with HCT-116. Description: Antiproliferative activity against human HCT-116 cells assessed as reduction in cell survival index incubated for 48 hrs by MTT assay. To be noted: HCT-116, 48 h.
A short description of data set [5]: Cytotoxicity against human HaCaT cells assessed as reduction in cell survival index incubated for 48 hrs by MTT assay. Type of data set: toxicity, cell-based.

As for `O=C1c2ccc(OCCc3ccc(F)cc3)cc2-c2nc3nonc3nc21`, the half-life in data set [1] came out at 0.715 h. In addition, the microsomal CLint in data set [2] came to 32.3 µL/min/mg.
With `O=C(COc1ccc2c(c1)-c1nc3nonc3nc1C2=O)OCc1ccccc1`, in data set [3], the inhibition turned out to be 48%. In addition, in data set [1], the half-life amounted to 0.075 h. Moreover, in data set [2], the microsomal CLint turned out to be 307 µL/min/mg.
Regarding `O=C1c2ccc(OCCc3cccc(C(F)(F)F)c3)cc2-c2nc3nonc3nc21`, in data set [4], the half-inhibitory concentration (IC50) was determined as 8.3 µM. Further, the 50% inhibitory concentration (IC50) at 48 h in data set [5] was determined as 17 µM. In addition, the half-life in data set [1] worked out at 2.65 h. Moreover, the microsomal CLint in data set [2] came out at 8.73 µL/min/mg.
Turning to `O=C1c2ccc(OCCCc3ccccc3)cc2-c2nc3nonc3nc21`, in data set [4], the IC50 was determined as 6.4 µM. Besides, in data set [5], the IC50 at 48 h stood at 28 µM. Further, the half-life in data set [1] stood at 5.43 h. In addition, the microsomal CLint in data set [2] worked out at 4.25 µL/min/mg.
Turning to `O=C(Oc1ccc2c(c1)-c1nc3nonc3nc1C2=O)c1ccccc1`, the half-life in data set [1] is 1.16 h. In data set [2], the microsomal CLint turned out to be 19.9 µL/min/mg.
On to `O=C1c2ccc(OCc3ccc(Br)cc3)cc2-c2nc3nonc3nc21`, for which, in data set [1], the half-life was determined as 3.97 h. For the same molecule, in data set [2], the microsomal CLint came to 5.82 µL/min/mg.
Consider `O=C1c2ccc(OCc3ccccc3)cc2-c2nc3nonc3nc21`, for which the half-life in data set [1] came to 2.74 h. Further, the microsomal CLint in data set [2] came out at 8.42 µL/min/mg.

Broadly, the half-life is the time in which the quantity being followed falls by half. The term inhibition denotes how much of the control response was suppressed. The IC50 is the concentration at which inhibition is half-maximal.
